This note sets out measurements from patent publication US4882313A, “Carboxamide derivatives of glycopeptides” (SmithKline Beckman Corporation, priority 1987, dated 1989).

Series [1] deals with Staphylococcus epidermidis. Put plainly: standard microtiter assay, minimum inhibitory concentration. It counts as cell-based. Further details: minimum inhibitory concentration of antibiotic, Test Organism 8: unit not given here. Conditions: for minimum inhibitory concentration of antibiotic, Test Organism 6: Test Organism 6, strain of Staphylococcus epidermidis; for minimum inhibitory concentration of antibiotic, Test Organism 8: Test Organism 8, strain of Staphylococcus epidermidis; for minimum inhibitory concentration of antibiotic, Test Organism 11: Test Organism 11, strain of Staphylococcus epidermidis; for minimum inhibitory concentration of antibiotic, Test Organism 13: Test Organism 13, strain of Staphylococcus epidermidis; for minimum inhibitory concentration of antibiotic, Test Organism 14: Test Organism 14, strain of Staphylococcus epidermidis. An excerpt: (§1) Representative results of standard microtiter assays are reported in Table 1 which follows, as the minimum inhibitory concentration of antibiotic (mg/ml). In Table 1, test organisms 1-5 were different strains of Staphylococcus aureus; 6, 8, 11, 13 and 14 were different strains of Staphylococcus epidermidis; 7 was a Staphylococcus haemolyticus; 9 and 10 were different strains of Streptococcus faecalis; and 12 was a Staphylococcus saprophyticus.

Series [2] relates to Staphylococcus saprophyticus. Described as above. It is filed as cell-based. Particulars: Test Organism 12, Staphylococcus saprophyticus.
Source text: as §1

In the next series the test system is Streptococcus faecalis. Described as above. It is filed as cell-based. Conditions: for minimum inhibitory concentration of antibiotic, Test Organism 9: Test Organism 9, strain of Streptococcus faecalis; for minimum inhibitory concentration of antibiotic, Test Organism 10: Test Organism 10, strain of Streptococcus faecalis.
Source text: as §1

Another series deals with Staphylococcus aureus. Described as above. Conditions: for minimum inhibitory concentration of antibiotic, Test Organism 1: Test Organism 1, strain of Staphylococcus aureus; for minimum inhibitory concentration of antibiotic, Test Organism 2: Test Organism 2, strain of Staphylococcus aureus; for minimum inhibitory concentration of antibiotic, Test Organism 3: Test Organism 3, strain of Staphylococcus aureus; for minimum inhibitory concentration of antibiotic, Test Organism 4: Test Organism 4, strain of Staphylococcus aureus; for minimum inhibitory concentration of antibiotic, Test Organism 5: Test Organism 5, strain of Staphylococcus aureus. It is filed as cell-based.
Source text: as §1

In series [3] the test system is Staphylococcus haemolyticus. The series is described as above. It is filed as cell-based. Particulars: Test Organism 7, Staphylococcus haemolyticus.
Source text: as §1

Series [4] can be described thus: pI (analytical data, Table 2). It counts as physicochemical. An excerpt: Using substantially the procedures of both Examples 1 and 2, the compounds of Examples 3-15 were obtained by using the appropriate glycopeptide and amine starting materials.

Molecules are shown by their SMILES. Where only a bound is given, the exact number is not on record here.

On to `CCCCCCCCCC(=O)NC1C(Oc2c3cc4cc2Oc2c(Cl)cc(cc2Cl)C(O)C2NC(=O)C(NC(=O)C4NC(=O)C4NC(=O)C(NC(=O)C(NC)c5ccc(O)c(c5)Oc5cc(O)c(Cl)c4c5)C(O)c4ccc(c(Cl)c4)O3)c3ccc(O)c(c3)-c3c(OC4OC(CO)C(O)C(O)C4O)cc(O)cc3C(C(=O)NCCN)NC2=O)OC(C(=O)NCCN)C(O)C1O` (centres unmarked) [Compound 2m, Ardacin A-di-(2-aminoethylamide)], for which, in series [1], the “minimum inhibitory concentration of antibiotic, Test Organism 6” value worked out at 1600 µg/mL; the “minimum inhibitory concentration of antibiotic, Test Organism 8” value turned out to be 0.1; the “minimum inhibitory concentration of antibiotic, Test Organism 11” value was found to be 800 µg/mL; the “minimum inhibitory concentration of antibiotic, Test Organism 13” value is 200 µg/mL. Moreover, in series [2], the “minimum inhibitory concentration of antibiotic, Test Organism 12” value worked out at 400 µg/mL. Also, in the series on Streptococcus faecalis, the “minimum inhibitory concentration of antibiotic, Test Organism 9” value was determined as 100 µg/mL and the “minimum inhibitory concentration of antibiotic, Test Organism 10” value is 100 µg/mL. In the series with Staphylococcus aureus, the “minimum inhibitory concentration of antibiotic, Test Organism 1” value turned out to be 100 µg/mL; the “minimum inhibitory concentration of antibiotic, Test Organism 2” value came to 100 µg/mL; the “minimum inhibitory concentration of antibiotic, Test Organism 3” value worked out at 100 µg/mL; the “minimum inhibitory concentration of antibiotic, Test Organism 4” value came to 800 µg/mL. Also, in the series with Staphylococcus aureus, the “minimum inhibitory concentration of antibiotic, Test Organism 5” value came out at 400 µg/mL. Also, the “minimum inhibitory concentration of antibiotic, Test Organism 7” value in series [3] was found to be 800 µg/mL. The compound further gave a pI in series [4] of 8.4.
As to `CNC1C(=O)NC2C(=O)NC(C(=O)NC3C(=O)NC4C(=O)NC(C(=O)NC(C(N)=O)c5cc(O)cc(OC6OC(CO)C(O)C(O)C6O)c5-c5cc4ccc5O)C(O)c4cc(Cl)c(c(Cl)c4)Oc4cc3cc(c4O)Oc3ccc(cc3Cl)C2O)c2cc(cc(O)c2Cl)Oc2cc1ccc2O` (centres unmarked) [Compound 2n, Ardacin mannosylaglycone amide], in series [1], the “minimum inhibitory concentration of antibiotic, Test Organism 6” value was 1600 µg/mL; the “minimum inhibitory concentration of antibiotic, Test Organism 11” value amounted to 6300 µg/mL; the “minimum inhibitory concentration of antibiotic, Test Organism 13” value amounted to 1600 µg/mL; the “minimum inhibitory concentration of antibiotic, Test Organism 14” value stood at 1600 µg/mL. Further, the “minimum inhibitory concentration of antibiotic, Test Organism 12” value in series [2] was 1600 µg/mL. The “minimum inhibitory concentration of antibiotic, Test Organism 9” value with Streptococcus faecalis is 200 µg/mL. Besides, in the series on Staphylococcus aureus, the “minimum inhibitory concentration of antibiotic, Test Organism 1” value came out at 200 µg/mL; the “minimum inhibitory concentration of antibiotic, Test Organism 2” value came out at 800 µg/mL; the “minimum inhibitory concentration of antibiotic, Test Organism 3” value was 100 µg/mL; the “minimum inhibitory concentration of antibiotic, Test Organism 4” value is 3100 µg/mL. In the series on Staphylococcus aureus, the “minimum inhibitory concentration of antibiotic, Test Organism 5” value was 400 µg/mL. In addition, the “minimum inhibitory concentration of antibiotic, Test Organism 7” value in series [3] turned out to be 1600 µg/mL. The compound further displayed a pI in series [4] of 7.1.
For `CNC1C(=O)NC2C(=O)NC(C(=O)NC3C(=O)NC4C(=O)NC(C(=O)NC(C(=O)NCCN)c5cc(O)cc(OC6OC(CO)C(O)C(O)C6O)c5-c5cc4ccc5O)C(O)c4cc(Cl)c(c(Cl)c4)Oc4cc3cc(c4O)Oc3ccc(cc3Cl)C2O)c2cc(cc(O)c2Cl)Oc2cc1ccc2O` (centres unmarked) [Compound 2o, Ardacin mannosylaglycone-(2-aminoethyl amide)], in series [1], the “minimum inhibitory concentration of antibiotic, Test Organism 6” value amounted to 400 µg/mL; the “minimum inhibitory concentration of antibiotic, Test Organism 8” value is reported as 0.8; the “minimum inhibitory concentration of antibiotic, Test Organism 11” value was 800 µg/mL; the “minimum inhibitory concentration of antibiotic, Test Organism 13” value worked out at 100 µg/mL. The “minimum inhibitory concentration of antibiotic, Test Organism 12” value in series [2] turned out to be 400 µg/mL. In the series on Streptococcus faecalis, the “minimum inhibitory concentration of antibiotic, Test Organism 9” value was 200 µg/mL and the “minimum inhibitory concentration of antibiotic, Test Organism 10” value is 200 µg/mL. In the series on Staphylococcus aureus, the “minimum inhibitory concentration of antibiotic, Test Organism 1” value is 400 µg/mL; the “minimum inhibitory concentration of antibiotic, Test Organism 2” value was found to be 400 µg/mL; the “minimum inhibitory concentration of antibiotic, Test Organism 3” value amounted to 400 µg/mL; the “minimum inhibitory concentration of antibiotic, Test Organism 4” value worked out at 400 µg/mL. The “minimum inhibitory concentration of antibiotic, Test Organism 5” value in the series with Staphylococcus aureus worked out at 400 µg/mL. For the same compound, the “minimum inhibitory concentration of antibiotic, Test Organism 7” value in series [3] was 1600 µg/mL. The same compound returned a pI in series [4] of 7.8.
For the compound `CNC1C(=O)NC2C(=O)NC(C(=O)NC3C(=O)NC4C(=O)NC(C(=O)NC(C(N)=O)c5cc(O)cc(OC6OC(CO)C(O)C(O)C6O)c5-c5cc4ccc5O)C(O)c4ccc(c(Cl)c4)Oc4cc3cc(c4OC3OC(C(N)=O)C(O)C(O)C3NC(=O)CCCCCCCCC(C)C)Oc3ccc(cc3)C2O)c2cc(cc(O)c2Cl)Oc2cc1ccc2O` (centres unmarked) [Compound 2q, AAJ-271 C1 diamide], in series [1], the “minimum inhibitory concentration of antibiotic, Test Organism 6” value was found to be 12500 µg/mL; the “minimum inhibitory concentration of antibiotic, Test Organism 8” value is 6.3; the “minimum inhibitory concentration of antibiotic, Test Organism 11” value turned out to be 12500 µg/mL; the “minimum inhibitory concentration of antibiotic, Test Organism 13” value came to 3100 µg/mL. Also, the “minimum inhibitory concentration of antibiotic, Test Organism 14” value in series [1] is 3100 µg/mL. In series [2], the “minimum inhibitory concentration of antibiotic, Test Organism 12” value worked out at 12500 µg/mL. Further, in the series with Streptococcus faecalis, the “minimum inhibitory concentration of antibiotic, Test Organism 9” value came to 200 µg/mL and the “minimum inhibitory concentration of antibiotic, Test Organism 10” value was 200 µg/mL. Also, in the series on Staphylococcus aureus, the “minimum inhibitory concentration of antibiotic, Test Organism 1” value was determined as 800 µg/mL; the “minimum inhibitory concentration of antibiotic, Test Organism 2” value stood at 1600 µg/mL; the “minimum inhibitory concentration of antibiotic, Test Organism 3” value is 800 µg/mL; the “minimum inhibitory concentration of antibiotic, Test Organism 4” value was > 1600 µg/mL. Also, the “minimum inhibitory concentration of antibiotic, Test Organism 5” value in the series with Staphylococcus aureus came to 1600 µg/mL. The “minimum inhibitory concentration of antibiotic, Test Organism 7” value in series [3] worked out at 3100 µg/mL. In addition, the pI in series [4] was determined as 7.3.
